Earlier results as cited in US6846809B2, “PEI: DNA vector formulations for in vitro and in vivo gene delivery” (Board of Regents, The University of Texas System, priority 2000, dated 2005).
Where a name gives a salt, the structure may show the parent alone. Read-outs that look alike come from different tables or passages of the source. One block for each compound: values may come before it. *1 amine or outer side, *2 acyl side, *3 side chain or, on linkers, in order; H or OH if unused. Where a SMILES comes first, the peptide text is derived from it. Bridges are numbered along the chain shown (N, C = ends). Roman numbers before positions name the chains, in order. [ ]: non-standard residue; d: D form. Actinocin(9to1) = Cc1c2oc3c(C)ccc(C(=O)[*:1])c3nc-2c(C(=O)[*:2])c(N)c1=O; NMeV = CN[C@H](C(=O)O)C(C)C; Sar = CNCC(=O)O

Legend:
multiple myeloma = conditions: oral administration
[1] = system: chronic myelogenous leukemia; conditions: previously untreated
certain animal tumors = conditions: in vivo
[2] = mouse, in vivo
[3] = system: Hodgkin's Disease, testicular tumors, squamous cell cancers

elimination half-life (human, in vivo): about 19 hours | fraction secreted into the bile (human, in vivo): about 40% | half-life of distribution (human, in vivo): 45 min | oral / gastrointestinal absorption (human, in vivo): poor
Compound: COc1cccc2c1C(=O)c1c(O)c3c(c(O)c1C2=O)C[C@@](O)(C(C)=O)C[C@@H]3O[C@H]1C[C@H](N)[C@H](O)[C@H](C)O1 [Daunorubicin, 5,12-Naphthacenedione, (8S-cis)-8-acetyl-10-[(3-amino-2,3,6-trideoxy-a-L-lyxo-hexanopyranosyl)oxy]-7,8,9,10-tetrahydro-6,8,11-trihydroxy-10-methoxy-, hydrochloride]

Compound: N[C@@H](Cc1ccc(N(CCCl)CCCl)cc1)C(=O)O [Melphalan, 4-[bis(2-chloroethyl)amino]-L-phenylalanine]
patients showing a favorable response (multiple myeloma): about one third to one half

Compound: CS(=O)(=O)OCCCCOS(C)(=O)=O [Busulfan, 1,4-butanediol dimethanesulfonate]
adults obtaining hematologic remission [1]: Approximately 90%

Compound: COc1cccc2c1C(=O)c1c(O)c3c(c(O)c1C2=O)C[C@@](O)([C@H](C)O)C[C@@H]3O[C@H]1C[C@H](N)[C@H](O)[C@H](C)O1 [daunorubicinol]
half-life (human, in vivo): about 27 hours

Compound: CO[C@@]12[C@H](COC(N)=O)C3=C(C(=O)C(C)=C(N)C3=O)N1C[C@@H]1N[C@@H]12 [Mitomycin]
time required to reduce the serum concentration by about 50% (30 mg bolus injection): 17 min | fraction of dose excreted in the urine (human, in vivo): Approximately 10%

Compound: Cc1c2oc3c(C)ccc(C(=O)N[C@@H]4C(=O)N[C@H](C(C)C)C(=O)N5CCC[C@H]5C(=O)N(C)CC(=O)N(C)[C@@H](C(C)C)C(=O)O[C@@H]4C)c3nc-2c(C(=O)N[C@@H]2C(=O)N[C@H](C(C)C)C(=O)N3CCC[C@H]3C(=O)N(C)CC(=O)N(C)[C@@H](C(C)C)C(=O)O[C@@H]2C)c(N)c1=O [Actinomycin D] (I: T[dV]P[Sar][NMeV] / II: T[dV]P[Sar][NMeV]; ester I:1-I:C, II:1-II:C; linker I:N-II:N via Actinocin(9to1))
blood-brain barrier passage (human, in vivo): does not pass the blood-brain barrier | fraction of dose excreted in the urine (human, in vivo): 10% | fraction of dose excreted intact into the bile (human, in vivo): Half of the dose | half-life (human, in vivo): about 36 hours

Compound: O=NN(CCCl)C(=O)NC1CCCCC1 [Lomustine, 1-(2-chloro-ethyl)-3-cyclohexyl-1 nitrosourea]
serum half-life of the metabolites (human, in vivo): 16 hours to about 2 days | radioactivity excreted as degradation products within 24 hours (oral radioactive drug, about 30 mg/m^2 to 100 mg/m^2): about half

Compound: O.O=P1(N(CCCl)CCCl)NCCCO1 (centres unmarked) [Cyclophosphamide, 2H-1,3,2-Oxazaphosphorin-2-amine, N,N-bis(2-chloroethyl)tetrahydro-, 2-oxide, monohydrate]
stability in the gastrointestinal tract (human, in vivo): stable in the gastrointestinal tract | local tolerance (oral and parental routes): does not cause local vesication, necrosis, phlebitis or even pain

distribution into blood cells (human, in vivo): extensively concentrated in platelets
Compound: CC[C@]1(O)C[C@H]2CN(CCc3c([nH]c4ccccc34)[C@@](C(=O)OC)(c3cc4c(cc3OC)N(C=O)[C@H]3[C@@](O)(C(=O)OC)[C@H](OC(C)=O)[C@]5(CC)C=CCN6CC[C@]43[C@@H]65)C2)C1 [Vincristine]

fraction of dose recovered in the feces (after biliary excretion): about 10% | distribution into blood cells (human, in vivo): extensively concentrated in platelets | fraction of dose excreted in the urine (human, in vivo): Approximately 15%
Compound: CC[C@]1(O)C[C@@H]2CN(CCc3c([nH]c4ccccc34)[C@@](C(=O)OC)(c3cc4c(cc3OC)N(C)[C@H]3[C@@](O)(C(=O)OC)[C@H](OC(C)=O)[C@]5(CC)C=CCN6CC[C@]43[C@@H]65)C2)C1 [Vinblastine]

Compound: COc1cccc2c1C(=O)c1c(O)c3c(c(O)c1C2=O)C[C@@](O)(C(=O)CO)C[C@@H]3O[C@H]1C[C@H](N)[C@H](O)[C@H](C)O1 [Doxorubicin, 5,12-Naphthacenedione, (8s-cis)-10-[(3-amino-2,3,6--trideoxy-a-L-lyxo-hexopyranosyl)oxy]-7,8,9,10-tetrahydro-6,8,11-trihydroxy-8-(hydroxyacetyl)-1-methoxy-hydrochloride]
elimination half-life (human, in vivo): about 30 hours | fraction of dose excreted in the urine (human, in vivo): a few percent

Compound: O=C(O)CCCc1ccc(N(CCCl)CCCl)cc1 [Chlorambucil, 4-[bis(2-chlorethyl)amino] benzenebutanoic acid]
oral / gastrointestinal absorption (human, in vivo): rapidly and completely absorbed | terminal half-life (plasma): about 1.5 hours | time to peak plasma levels (single oral doses of about 0.6 mg/kg to about 1.2 mg/kg): within one hour

Compound: N[C@H](Cc1ccc(N(CCCl)CCCl)cc1)C(=O)O [medphalan]
activity compared with the L-isomer (certain animal tumors): less active against certain animal tumors

Compound: Bleomycin
concentrations in hematopoietic tissue / bone marrow [2]: low concentrations | concentrations in skin, lungs, kidneys, peritoneum, and lymphatics [2]: high concentrations | time to improvement ([3]; Hodgkin's Disease and testicular tumors): ≤ 2 weeks | time to improvement ([3]; squamous cell cancers): ≤ 3 weeks | fraction of dose excreted in the urine (human, in vivo): 60-70%
